Legend:
HSV-1 [1] = experiment: Anti-HSV screening assay (viral plaques), HSV-1; type: cell-based; settings: 100 μg/mL, viral plaques relative to mock treated controls
Experimental: (§1) African green monkey kidney (GMK AH1) cells^46 were cultured in Eagle's minimum essential medium (EMEM) supplemented with 2% calf serum, 0.05% Primaton RL substance (Kraft Inc., Norwich, USA) and antibiotics. Human epidermoid carcinoma (HEp-2) cells were cultured in Dulbecco's modified EMEM (DMEM) supplemented with 10% fetal calf serum and antibiotics. […] The RSV strain A-2^50 was used. The RSV stock was prepared as described by Hallak et al.^51 and stored at −70° C. in the presence of 40% sucrose^52.
(§2) The viral infectivity (the plaque number-reduction) assay and the plaque size-reduction assay were carried out as described previously^17. […] Subsequently, the cells were washed with 2 mL of EMEM and overlaid with 1% methylcellulose solution in EMEM. The plaques were visualized by staining with crystal violet solution after 2 (HSV-2) or 3 (HSV-1) days of incubation at 37° C. […] When the compounds were screened for anti-HSV or anti-RSV activity, mixtures of 200 PFU of the virus and the test compound (100 μg/mL) in serum-free EMEM were incubated for 10 min at room temperature before addition to cells and during the entire period of viral infection of cells and the development of viral plaques. In the plaque size-reduction assay, the compounds were added to cells (in methylcellulose overlay medium) after 2 h period of virus infection of cells in the absence of the inhibitor. After 2-3 days of incubation at 37° C., the viral plaques were visualized by staining the cells with 1% solution of crystal violet. For each compound tested, the images of twenty neighboring plaques were captured using a Leica DC300 digital camera attached to a Leitz-Wetzlar Diavert microscope. The area of each plaque was determined using IM500 image software (Leica). Similar protocols were used for RSV, except that the assays were performed in HEp-2 cells and DMEM supplemented with 2% heat-inactivated fetal calf serum was used instead of EMEM.

HEp-2 cells = experiment: Cytotoxicity assay, HEp-2; type: cell-based, Human; settings: cell viability reduced by 50%
HSV-1 [2] = experiment: Viral plaque number-reduction assay, HSV-1; settings: GMK AH1 cells
Experimental: as §1, §2

RSV = experiment: Virus inactivation assay, RSV; type: cell-based; settings: 15 min at 37° C.
Experimental: Approximately 10^5 plaque-forming units of HSV-1 KOS321 or HSV-2 333 stain and specific concentrations of the test compound in 200 μL of serum-free EMEM were mixed and incubated at 37° C. for 15 min. The mixtures were diluted to the non-inhibitory concentrations of the test compound, and then subjected to the infectious titer determination as described under the viral plaque number-reduction assay. In case of RSV, the assay was carried out in similar manner using DMEM supplemented with 2% heat-inactivated fetal calf serum instead of EMEM. To evaluate the effect of a low pH value or the presence of cervical secretions; the virus (HSV-2 333) and compounds were diluted in a low pH buffer (4.5) or cervical secretions were added to the compound dilutions before mixing with the virus (HSV-2 333). The cervical secretions were prepared from cervical swabs generated from 3 different individuals. The swabs were rinsed with distilled water and centrifuged at 5000×g for 10 min. The supernatant was kept at −20° C. In the case of RSV, the assay was carried out in a similar manner using DMEM supplemented with 2% heat-inactivated fetal calf serum instead of EMEM.

SMILES | Residual infectivity (%) HSV-1 (HSV-1 [1]) | Cytotoxicity CC50 HEp-2 (HEp-2 cells) | Selective index CC50/IC50 HSV-1 (HSV-1 [2]) | Virus-inactivating activity: viral plaques with compound-treated virus relative to mock-treated controls (RSV; 4 μg/ml) | Virus-inactivating activity: viral plaques with compound-treated virus relative to mock-treated controls (RSV; 20 μg/ml) | Virus-inactivating activity: viral plaques with compound-treated virus relative to mock-treated controls (RSV; 100 μg/ml)
CCCCCCCCCCCCOC1OC(COS(=O)(=O)O)C(OS(=O)(=O)O)C(OS(=O)(=O)O)C1OC1OC(COS(=O)(=O)O)C(OS(=O)(=O)O)C(OC2OC(COS(=O)(=O)O)C(OS(=O)(=O)O)C(OC3OC(COS(=O)(=O)O)C(OS(=O)(=O)O)C(OC4OC(COS(=O)(=O)O)C(OS(=O)(=O)O)C(OS(=O)(=O)O)C4OS(=O)(=O)O)C3OS(=O)(=O)O)C2OS(=O)(=O)O)C1OS(=O)(=O)O [Compound 4, Dodecyl 2,3,4,6-tetra-O-sodium sulfonato-α-D-mannopyranosyl-(1→3)-2,4,6-tri-O-sodium sulfonato-α-D-mannopyranosyl-(1→3)-2,4,6-tri-O-sodium sulfonato-α-D-mannopyranosyl-(1→3)-2,4,6-tri-O-sodium sulfonato-α-D-mannopyranosyl-(1→2)-3,4,6-tri-O-sodium sulfonato-α-D-mannopyranoside] | 2% | >400 µg/mL | > 190 | 85.2% | 82.2% | 47.3%
CC(C)CCCC(C)C1CCC2C3CCC4CC(OC5OC(COS(=O)(=O)O)C(OS(=O)(=O)O)C(OS(=O)(=O)O)C5OC5OC(COS(=O)(=O)O)C(OS(=O)(=O)O)C(OC6OC(COS(=O)(=O)O)C(OS(=O)(=O)O)C(OC7OC(COS(=O)(=O)O)C(OS(=O)(=O)O)C(OS(=O)(=O)O)C7OS(=O)(=O)O)C6OS(=O)(=O)O)C5OS(=O)(=O)O)CCC4(C)C3CCC12C [Compound 20, 3β-Cholestanyl 2,3,4,6-tetra-O-sodium sulfonato-α-D-mannopyranosyl-(1→3)-2,4,6-tri-O-sodium sulfonato-α-D-mannopyranosyl-(1→3)-2,4,6-tri-O-sodium sulfonato-α-D-mannopyranosyl-(1→2)-3,4,6-tri-O-sodium sulfonato-α-D-mannopyranoside] | 0% | 113 µg/mL | 52 | 102.2% | 79.0% | 13.3%
